Assay results taken from the NIST ThermoML archive (doi:10.1016/j.fluid.2005.04.008).

Assay: xn = mol fraction of the nth substance listed
Settings: Liquid

CCCCCCCCCC=CC=CC=CC=CC=CC=CC(=O)OCC [docosahexaenoic acid, ethyl ester] + O=C=O
Settings | mass density [kg/m3]
313 K, x2 = 0.5325 | 912.2
313 K, x2 = 0.6836 | 915.9
313 K, x2 = 0.7773 | 919.1
313 K, x2 = 0.849 | 920.8
313 K, x2 = 0.8795 | 921.3
313 K, x2 = 0.8972 | 922.1
313 K, x2 = 0.9121 | 923
313 K, x2 = 0.9222 | 923.7
313 K, x2 = 0.9266 | 923.8
313 K, x2 = 0.9335 | 924
313 K, x2 = 0.9366 | 923.9
313 K, x2 = 0.9392 | 924.1
313 K, x2 = 0.9443 | 921.9
333 K, x2 = 0.5583 | 894.9
333 K, x2 = 0.6793 | 896.5
333 K, x2 = 0.7551 | 898.4
333 K, x2 = 0.7811 | 899.5
333 K, x2 = 0.8154 | 900
333 K, x2 = 0.8278 | 900.5
333 K, x2 = 0.8411 | 900.7
333 K, x2 = 0.8612 | 900.8
333 K, x2 = 0.8784 | 901
333 K, x2 = 0.8918 | 901.4
333 K, x2 = 0.9022 | 901.3
333 K, x2 = 0.9114 | 900.5
333 K, x2 = 0.9221 | 899
333 K, x2 = 0.9419 | 887.6

CCCCCCCCCC=CC=CC=CC=CC=CC(=O)OCC [eicosapentaenoic acid, ethyl ester] + O=C=O
Settings | mass density [kg/m3]
313 K, x2 = 0.5962 | 907.6
313 K, x2 = 0.6865 | 911.9
313 K, x2 = 0.7582 | 915.2
313 K, x2 = 0.8265 | 916.8
313 K, x2 = 0.8496 | 916.3
313 K, x2 = 0.8708 | 916
313 K, x2 = 0.8826 | 916.1
313 K, x2 = 0.8921 | 916
313 K, x2 = 0.9008 | 915.5
313 K, x2 = 0.9091 | 915.2
313 K, x2 = 0.9184 | 913.7
313 K, x2 = 0.9264 | 912.3
313 K, x2 = 0.9402 | 906.6
333 K, x2 = 0.2842 | 886.2
333 K, x2 = 0.5005 | 888.6
333 K, x2 = 0.5996 | 890.9
333 K, x2 = 0.6826 | 892.9
333 K, x2 = 0.7423 | 894.3
333 K, x2 = 0.7876 | 895.3
333 K, x2 = 0.8186 | 895.6
333 K, x2 = 0.8338 | 895.5
333 K, x2 = 0.8541 | 895.1
333 K, x2 = 0.8766 | 894.8
333 K, x2 = 0.8927 | 894.1
333 K, x2 = 0.9043 | 892.8
333 K, x2 = 0.916 | 890.3
333 K, x2 = 0.9324 | 879.8

CCCCC/C=C\C/C=C\CCCCCCCC(=O)OC [methyl (Z,Z)-9,12-octadecadienate] + O=C=O
Settings | mass density [kg/m3]
313 K, x2 = 0.5217 | 879.7
313 K, x2 = 0.6288 | 881.5
313 K, x2 = 0.7185 | 884.5
313 K, x2 = 0.758 | 888.1
313 K, x2 = 0.8057 | 890.6
313 K, x2 = 0.8337 | 892.9
313 K, x2 = 0.8624 | 895.4
313 K, x2 = 0.8862 | 896.8
313 K, x2 = 0.8984 | 895.2
313 K, x2 = 0.9209 | 892.9
313 K, x2 = 0.9289 | 890.5
313 K, x2 = 0.9388 | 885.7
333 K, x2 = 0.6128 | 868.3
333 K, x2 = 0.7016 | 870.8
333 K, x2 = 0.791 | 872.8
333 K, x2 = 0.8255 | 874.1
333 K, x2 = 0.852 | 875
333 K, x2 = 0.8742 | 874.1
333 K, x2 = 0.8981 | 873.4
333 K, x2 = 0.9048 | 872.7
333 K, x2 = 0.9102 | 871.7
333 K, x2 = 0.9156 | 870.5
333 K, x2 = 0.9193 | 870
333 K, x2 = 0.9264 | 864.7
333 K, x2 = 0.934 | 860.3
333 K, x2 = 0.9509 | 838.1

CCCCCCCC/C=C\CCCCCCCC(=O)OC [methyl cis-9-octadecenoate] + O=C=O
Settings | mass density [kg/m3]
313 K, x2 = 0.4876 | 868.6
313 K, x2 = 0.5963 | 874.2
313 K, x2 = 0.7077 | 878.5
313 K, x2 = 0.7931 | 884.3
313 K, x2 = 0.833 | 885.5
313 K, x2 = 0.8595 | 887.5
313 K, x2 = 0.8736 | 887.5
313 K, x2 = 0.8891 | 886.9
313 K, x2 = 0.9111 | 886.4
313 K, x2 = 0.9231 | 885.1
313 K, x2 = 0.9312 | 882.7
313 K, x2 = 0.9387 | 881.2
333 K, x2 = 0.6086 | 857.1
333 K, x2 = 0.6969 | 859.9
333 K, x2 = 0.7916 | 862.3
333 K, x2 = 0.8255 | 864.4
333 K, x2 = 0.8509 | 865.8
333 K, x2 = 0.8813 | 867.4
333 K, x2 = 0.8901 | 864.5
333 K, x2 = 0.9072 | 864.9
333 K, x2 = 0.9167 | 863.2
333 K, x2 = 0.9213 | 863.1
333 K, x2 = 0.9282 | 859.2
333 K, x2 = 0.9341 | 858.9
333 K, x2 = 0.943 | 851.6
